{"source": "patent US9801922B2", "about": "“Compositions and methods of treating cancer” (UNIVERSITY OF IOWA RESEARCH FOUNDATION, priority 2011, dated 2017)", "key": {"[1]": {"test_system": "MDA-MB231 human breast cancer cells", "assay": "Clonogenic cell survival, MDA-MB231", "format": "cell-based", "settings": "for clonogenic cell killing: 100 μM BSO, 1 μM DTPP 24 h, 500 nM AUR 15 min (FIG. 1B)", "method": "FIGS. 1A-D: BSO, DTPP and AUR treated SUM159, MDA-MB231 and HMEC Clonogenic survival. In Panel A (SUM 159), B (MDA-MB231) and C(HMEC), 150,000 cells/dish SUM159 or MDA-MB231 and 300,000 cells/dish were plated in 60 mm tissue culture dishes. After 48 hours, cells were given fresh complete HMECs media and treated with 100 μM BSO+/1 μM DTPP for 24 hours. 500 nM AUR were added 15 mins before the trypsinization of cells for clonogenic survival assay. In panel A-C, The error bars represent mean±1 SD of n=1 treatment dishes done in 3 separate experiments where each treatment dish was used to prepare 6-10 replicate cloning dishes for analysis. *p<0.001 as compared to Control. […] Mice growing Sum159 xenograft tumors were treated with 100 μM DTPP in drinking water for 2 weeks followed by i.p. injections of BSO 675 mg/kg followed in 2 hrs with Au 2.7 mg/kg. The day following injections tumors were harvested, digested and stained for ALDH positive cells. Each bar represents an average of at least three tumors. Error bars are SEM. *p<0.05 vs. control.\nFIGS. 3A-3B: Clonogenic survival of SUM159 and MDA-MB231 cells treated with BSO, DTPP and AUR in the presence of 20 mM NAC. Asynchronously growing cultures of SUM159 (panel A) and MDA-MB231 (panel B) were plated as described in FIG. 1. After 48 hours, cells were given fresh complete HMECs media and treated with 100 μM BSO+/1 μM DTPP in the presence or absence of 20 mM NAC for 24 hours. 500 nM AUR were added 15 mins before the trypsinization. cells were then collected and plated for clonogenic survival. In panel A, B, The error bars represent mean±1SD of n=1 treatment dishes done in 3 separate experiments where each treatment dish was used to prepare 6-10 replicate cloning dishes for analysis. *p<0.001 as compared to W/O NAC Control. ^p<0.001 as compared to W/NAC Control.\nClonogenic cell survival: To determine whether the DTPP exposure alters the cell proliferation in MDA-MB231, SUM159 and HMECs, 150,000 cells/dish of MDA-MB231 and SUM159 cells, and 300,000 cells/dish HMECs were plated in 60 mm tissue culture dishes. After 48 hours, at 24 hours prior to each clonogenic survival experiment, media in all the dishes were changed to HMECs media and then treated with 100 μM BSO and 1 μM DTPP for 24 h. Cells were treated with AUR for 15 minutes prior to each clonogenic survival experiment. Attached and floating cells in the experimental dishes were collected after trypsinization with 1× trypsin-EDTA (CellGro, Herndon, Va., USA), centrifuged, resuspended in fresh media, and counted using a Coulter counter. Cells were re-plated using appropriate dilutions in their own media and clones were allowed to grow for 14 days in their regular growth media in the presence of 0.1% gentamycin. Cells were then fixed with 70% ethanol and stained with Coomassie blue and colonies of more than 50 cells counted and utilized to calculate clonogenic survival as described (Puck, T. T.; Morkovin, D.; Marcus, P. I.; Cieciura, S. J. Action of x-rays on mammalian cells. II. Survival curves of cells from normal human tissues. J Exp Med 106:485-500; 1957; Spitz, D. R.; Malcolm, R. R.; Roberts, R. J. Cytotoxicity and metabolism of 4-hydroxy-2-nonenal and 2-nonenal in H2O2-resistant cell lines. Do aldehydic by-products of lipid peroxidation contribute to oxidative stress? Biochem J 267:453-459; 1990). […]"}, "[2]": {"test_system": "thioredoxin reductase (TRR)", "assay": "Thioredoxin reductase activity assay in treated SUM159 cells", "format": "cell-based, human", "settings": "for TRR activity: control 135", "method": "FIG. 8: Intracellular thioredoxin reductase (TRR) activity measured in BSO, DTPP, and AUR exposed SUM159 cells. Asynchronously growing cultures of SUM159 were plated and treated as described in FIG. 1. Cells were harvested and scraped in PBS at 4° C. Whole cell homogenates were used for biochemical analysis of thioredoxin reductase activity. Errors represent Mean±1 SD of 4 samples from two separate experiments (n=4). *p<0.001 as compared to Control.\nThioredoxin Reductase Assay: Thioredoxin Reductase activity was measured by using Thioredoxin Reductase Assay Kit purchased from Sigma (St Louis, Mo.). 400,000 cells/100 mm dishes of SUM159 cells were plated and treated with BSO, DTPP and AUR as described above. When cells were grown to 70-80% confluency on 100 mm dishes and scraped in PBS at 4° C., centrifuged, and the cell pellets were frozen at −20° C. until analysis. The assay was performed according to manufacturer's instructions. Briefly, working buffer containing 100 mM KPO4, pH 7.0, 10 mM EDTA, and 0.24 mM NADPH was prepared, and samples were added with working buffer along with 5,5′-dithiobis-(2-nitrobenzoic acid) (Eliman's reagent, DTNB). The rate of DTNB's reduction to 2-nitro-5-thiobenzoate (TNB) was then measured spectrophotometrically at […]. For each sample, this reaction was replicated, in tandem, with the sample in the presence of an inhibitor to thioredoxin reductase (TrxR), included with the kit. The difference between the sample rate with and without the TrxR inhibitor was taken to be the difference caused by TrxR activity in the sample. Each sample was then normalized to protein, by using the Lowry protein assay, as described previously (Lowry, O. H.; Rosebrough, N.J.; Farr, A. L.; Randall, R. J. Protein measurement with the Folin phenol reagent. J Biol Chem 193:265-275; 1951). The thioredoxin reductase activity of each sample was then normalized as a percentage of that of the control cells."}}, "note": "Where “and” joins values, the source holds several entries; their conditions need not be identical. Equal values may be shown once."}
{"molecule": "CC[PH](CC)(CC)[Au][S][C@@H]1O[C@H](COC(C)=O)[C@@H](OC(C)=O)[C@H](OC(C)=O)[C@H]1OC(C)=O", "note": "[AUR, S-triethylphosphinegold(I)-2,3,4,6-tetra-O-acetyl-1-thio-β-D-glucopyranoside]", "values": [{"measurement": "clonogenic cell killing", "setting": "[1]", "result": "50%-55% and 50%"}, {"measurement": "TRR activity", "setting": "[2]; 500 nM AUR 15 min", "result": 10, "unit": "mU/mg protein"}]}
{"molecule": "CCCCS(=N)(=O)CCC(N)C(=O)O", "note": "[BSO, L-buthionine-[S,R]-sulfoximine, reference compound]", "values": [{"measurement": "cytotoxicity (clonogenic survival), in words", "setting": "[1]; 100 μM BSO 24 h", "result": "did not cause significantly cytotoxicity"}, {"measurement": "effect on TRR activity, in words", "setting": "[2]", "result": "not capable of altering the TRR activity"}]}
{"molecule": "CCCCCCCCCC[P+](c1ccccc1)(c1ccccc1)c1ccccc1", "note": "[DTPP, Decyl-Triphenylphosphonium]", "values": [{"measurement": "survival fraction (of control cells) in the presence of NAC", "setting": "[1]; 1 μM DTPP with 20 mM NAC, 24 hrs", "result": "at least 70%"}, {"measurement": "decrease in cell survival / survival fraction compared to control", "setting": "[1]; 100 μM BSO and/or 1 μM DTPP for 24 hours", "result": "70%-80%"}, {"measurement": "clonogenic cell killing", "setting": "[1]", "result": "at least 70%"}, {"measurement": "increase of TRR activity", "setting": "[2]", "result": 2, "unit": "fold"}, {"measurement": "TRR activity", "setting": "[2]; 1 μM DTPP 24 h", "result": 311, "unit": "mU/mg"}]}
